Measurements reported in ChEMBL document CHEMBL5550140, “Emerging ferroptosis inhibitors as a novel therapeutic strategy for the treatment of neonatal hypoxic-ischemic encephalopathy” (2024).

System: Mus musculus
Experiment: Neuroprotective activity against hypoxia-ischemia brain injured mouse model assessed as reduction in infarct volume at 20 mg/kg, ip measured after 72 hrs by immuno-histochemistry based staining analysis relative to control
Assay type: functional
Design: scale not given: the % may be the effect or the level left

For `Oc1cccnc1NC(c1ccc(Cl)cc1)c1ccc2cccnc2c1O` (stereo unspecified), the Activity was 26.3%.
